Source: patent publication US20240208954A1, “OXADIAZOLE COMPOUND, PREPARATION METHOD THEREFOR, PHARMACEUTICAL COMPOSITION AND USE THEREOF” (SHANGHAI INSTITUTE OF MATERIA MEDICA, CHINESE ACADEMY OF …, priority 2020, published 2024)
Values joined by “and” are separate entries in the source; they are usually repeats but may differ in a detail not shown here. Equal entries are not always repeated. Where two headings read alike, the source gives them in different places.

Experiment: Preliminary assessment of in vivo pharmacokinetics in rats
Conditions: for AUC0-t: read-out: AUC0-t; for Vd: read-out: Vss; for concentration at 0.083 h / concentration at 0.25 h / concentration at 0.5 h / concentration at 1 h / concentration at 2 h / concentration at 4 h / concentration at 6 h / concentration at 8 h / concentration at 24 h: read-out: Plasma drug concentrations in rats
[1] = rat, in vivo, rats, intravenous 2 mg/kg, mean
[2] = rat, plasma, iv, 2 mg/kg, rats, intravenous 2 mg/kg, individual animals 1-3

CC(C)Oc1ccc(-c2nc(-c3ccc(CN4CC(C(=O)O)C4)c4ccccc34)no2)cc1C#N.Cl [Compound A1, 1-((4-(5-(3-cyano-4-isopropoxyphenyl)-1,2,4-oxadiazol-3-yl)naphthalen-1-yl)methyl) azetidine-3-carboxylic acid hydrochloric acid]
Plasma drug concentrations in rats (intragastric 20 mg/kg, 0.25 h, individual animals 4-6, listed as DC411151): 1960 ng/mL and 696 ng/mL and 1150 ng/mL
Plasma drug concentrations in rats (intragastric 20 mg/kg, 0.5 h, individual animals 4-6, listed as DC411151): 1570 ng/mL and 2600 ng/mL
Plasma drug concentrations in rats (intragastric 20 mg/kg, 1 h, individual animals 4-6, listed as DC411151): 2070 ng/mL and 3070 ng/mL
Plasma drug concentrations in rats (intragastric 20 mg/kg, 2 h, individual animals 4-6, listed as DC411151): 1220 ng/mL and 2150 ng/mL
Plasma drug concentrations in rats (intragastric 20 mg/kg, 4 h, individual animals 4-6, listed as DC411151): 635 ng/mL and 841 ng/mL
Plasma drug concentrations in rats (intragastric 20 mg/kg, 6 h, individual animals 4-6, listed as DC411151): 350 ng/mL and 289 ng/mL
Plasma drug concentrations in rats (intragastric 20 mg/kg, 8 h, individual animals 4-6, listed as DC411151): 64.0 ng/mL and 57.0 ng/mL
Plasma drug concentrations in rats (intragastric 20 mg/kg, 24 h, individual animals 4-6, listed as DC411151): 2.49 ng/mL and 2.92 ng/mL
Plasma drug concentrations in rats (intravenous 2 mg/kg, 0.083 h, individual animals 1-3, listed as DC411151, 2 mg/kg): 3720 ng/mL and 3390 ng/mL
Plasma drug concentrations in rats (intravenous 2 mg/kg, 0.25 h, individual animals 1-3, listed as DC411151, 2 mg/kg): 2650 ng/mL and 2700 ng/mL
Plasma drug concentrations in rats (intravenous 2 mg/kg, 0.5 h, individual animals 1-3, listed as DC411151, 2 mg/kg): 1710 ng/mL and 1890 ng/mL
Plasma drug concentrations in rats (intravenous 2 mg/kg, 1 h, individual animals 1-3, listed as DC411151, 2 mg/kg): 1110 ng/mL and 951 ng/mL
Plasma drug concentrations in rats (intravenous 2 mg/kg, 2 h, individual animals 1-3, listed as DC411151, 2 mg/kg): 563 ng/mL and 528 ng/mL
Plasma drug concentrations in rats (intravenous 2 mg/kg, 4 h, individual animals 1-3, listed as DC411151, 2 mg/kg): 138 ng/mL and 172 ng/mL
Plasma drug concentrations in rats (intravenous 2 mg/kg, 6 h, individual animals 1-3, listed as DC411151, 2 mg/kg): 51.4 ng/mL and 47 ng/mL
Plasma drug concentrations in rats (intravenous 2 mg/kg, 8 h, individual animals 1-3, listed as DC411151, 2 mg/kg): 13.6 ng/mL and 16.9 ng/mL
Plasma drug concentrations in rats (intravenous 2 mg/kg, 24 h, individual animals 1-3, listed as DC411151, 2 mg/kg): BQL and 1.94 ng/ml
Tmax (rat, in vivo, po, rats, intragastric 20 mg/kg, individual animals 4-6, read-out: Tmax): 1 h
AUC0-t (rat, in vivo, po, rats, intragastric 20 mg/kg, mean): 8780 ng·h/mL
Cmax (rat, in vivo, po, rats, intragastric 20 mg/kg, mean, read-out: Cmax): 2760 ng/mL
clearance [1]: 8.66 mL/min/kg
half-life [1]: 3.04 h
Vd [1]: 0.758 L/kg
concentration at 0.083 h (rat, plasma, iv, 2 mg/kg, intravenous 2 mg/kg, 0.083 h, individual animals 1-3): 3940 ng/mL
concentration at 0.083 h (rat, plasma, iv, 2 mg/kg, intravenous 2 mg/kg, 0.083 h, mean): 3680 ng/mL
concentration at 0.25 h (rat, plasma, iv, 2 mg/kg, intravenous 2 mg/kg, 0.25 h, individual animals 1-3): 2950 ng/mL
concentration at 0.25 h (rat, plasma, iv, 2 mg/kg, intravenous 2 mg/kg, 0.25 h, mean): 2770 ng/mL
concentration at 0.5 h (rat, plasma, iv, 2 mg/kg, intravenous 2 mg/kg, 0.5 h, individual animals 1-3): 1570 ng/mL
concentration at 0.5 h (rat, plasma, iv, 2 mg/kg, intravenous 2 mg/kg, 0.5 h, mean): 1720 ng/mL
concentration at 1 h (rat, plasma, iv, 2 mg/kg, intravenous 2 mg/kg, 1 h, individual animals 1-3): 900 ng/mL
concentration at 1 h (rat, plasma, iv, 2 mg/kg, intravenous 2 mg/kg, 1 h, mean): 987 ng/mL
concentration at 2 h (rat, plasma, iv, 2 mg/kg, intravenous 2 mg/kg, 2 h, individual animals 1-3): 419 ng/mL
concentration at 2 h (rat, plasma, iv, 2 mg/kg, intravenous 2 mg/kg, 2 h, mean): 503 ng/mL
concentration at 4 h (rat, plasma, iv, 2 mg/kg, intravenous 2 mg/kg, 4 h, individual animals 1-3): 128 ng/mL
concentration at 4 h (rat, plasma, iv, 2 mg/kg, intravenous 2 mg/kg, 4 h, mean): 146 ng/mL
concentration at 6 h (rat, plasma, iv, 2 mg/kg, intravenous 2 mg/kg, 6 h, individual animals 1-3): 45.8 ng/mL
concentration at 6 h (rat, plasma, iv, 2 mg/kg, intravenous 2 mg/kg, 6 h, mean): 48.1 ng/mL
concentration at 8 h (rat, plasma, iv, 2 mg/kg, intravenous 2 mg/kg, 8 h, individual animals 1-3): 11.8 ng/mL
concentration at 8 h (rat, plasma, iv, 2 mg/kg, intravenous 2 mg/kg, 8 h, mean): 14.1 ng/mL
concentration at 24 h (rat, plasma, iv, 2 mg/kg, intravenous 2 mg/kg, 24 h, individual animals 1-3): 1.16 ng/mL
concentration at 24 h (rat, plasma, iv, 2 mg/kg, intravenous 2 mg/kg, 24 h, mean): 1.55 ng/mL
AUC(0-inf) [2]: 3570 ng·h/mL
clearance [2]: 9.34 mL/min/kg
AUC0-t [2]: 3550 ng·h/mL
MRT inf (rat, plasma, iv, 2 mg/kg, rats, intravenous 2 mg/kg, individual animals 1-3, read-out: MRT0-∞): 1.2 h
Vd [2]: 0.672 L/kg
AUC(0-inf) (rat, plasma, iv, 2 mg/kg, rats, intravenous 2 mg/kg, mean): 3860 ng·h/mL
